Experimental data published in US20230391772A1, “METHODS AND COMPOSITIONS FOR TARGETED PROTEIN DEGRADATION” (Ranok Therapeutics (Hangzhou) Co. Ltd., priority 2020, published 2023).

Columns and labels:
[1] = system: MIA PaCa-2 human pancreatic carcinoma; test: MIA PaCa-2 CCK-8 proliferation assay; format: cell-based; conditions: Homo sapiens, MIA PaCa-2, 72 h, MIA PaCa-2 cells
Experimental: The following cancer cell lines were employed: BT-474 human breast carcinoma (ATCC, #HTB-20); MIA PaCa-2 human pancreatic carcinoma [2 copies KRAS(G12C)](ATCC, #CRL-1420); NCI-H23 human non-small cell lung cancer [1 copy KRAS(G12C)](ATCC, #CRL-5800); NCI-H358 human non-small cell lung cancer [1 copy KRAS(G12C)](ATCC, #CRL-5807); LU65A human lung carcinoma (Pharmaron, Beijing, China). Cell lines were cultured essentially according to ATCC and Pharmaron recommendations.
Cancer Cell Line Proliferation (CCK-8) Assays
3-fold serial dilutions of each test compound were prepared ranging from 20 μM to 1.02 nM.
% Inhibition=100−(D−B)/(S−B)*100%. • S: Absorbance of cells treated with DMSO • D: Absorbance of compound-treated cells • B: Absorbance of medium with DMSO without cells

HSP90a protein = target: T1, HSP90a protein (Homo sapiens, UniProt P07900); test: HSP90α-binding fluorescent polarization (FP) assay, BODIPY-labeled RNK04010 probe; conditions: FP competition with RNK04010 (BODIPY-labeled), 5 nM, 300 min at 25° C.
T1 construct: purchased BPS Bioscience 50298
Experimental: HSP90α-Binding Fluorescent Polarization (FP) Assay
Binding of test compounds to HSP90a protein was measured by fluorescent polarization (FP) using the HSP90a (N-terminal) Assay Kit (BPS Bioscience, #50298), following the manufacturer's instructions, except as noted. Fluorescently labeled HSP90-binding compounds, either the provided FITC-geldanamycin (5 nM final concentration) or RNK04010, a triazolone-based HSP90 binding small molecule labeled with BODIPY through a piperizine-phenyl linker (5 nM final concentration) were employed. A 2.5-fold serial dilution of each test compound ranging from 20 μM to 5.2 nM was assayed for binding to HSP90a. After the final step of adding HSP90a protein to each assay well, plates were mixed by brief shaking, incubated at 25° C. for 120 min for FITC-geldanamycin or 300 min for RNK04010, and fluorescence was measured using a PerkinElmer EnVision Plate Reader.

Row | Compound | EC50 [1] [nM] | IC50 (HSP90a protein) [nM]
1 | C=CC(=O)N1CCN(c2nc(OC[C@@H]3CCN(C(=O)c4ccc5c(c4)CN(C(=O)c4cc(C(C)C)c(O)cc4O)C5)C3)nc3c2CCN(c2cccc4cccc(Cl)c24)C3)C[C@@H]1CC#N [Compound 175, 2-((S)-1-acryloyl-4-(7-(8-chloronaphthalen-1-yl)-2-(((R)-1-(2-(2,4-dihydroxy-5-isopropylbenzoyl)isoindoline-5-carbonyl)pyrrolidin-3-yl)methoxy)-5,6,7,8-tetrahydropyrido[3,4-d]pyrimidin-4-yl)piperazin-2-yl)acetonitrile] |  | > 1000
2 | C=CC(=O)N1CCN(c2nc(OCC3(CN4CCN(Cc5ccc(-n6c(O)nnc6-c6cc(C(C)C)c(O)cc6O)cc5)CC4)CC3)nc3c2CCN(c2cccc(C)c2C)C3)C[C@@H]1CC#N [Compound 292, 2-[(2S)-4-{2-[(1-{[4-({4-[3-(2,4-dihydroxy-5-isopropylphenyl)-5-hydroxy-1,2,4-triazol-4-yl]phenyl}methyl)piperazin-1-yl]methyl}cyclopropyl)methoxy]-7-(2,3-dimethylphenyl)-5H,6H,8H-pyrido[3,4-d]pyrimidin-4-yl}-1-(prop-2-enoyl)piperazin-2-yl]acetonitrile] | 100 to 1000 | 
3 | C=CC(=O)N1CCN(c2nc(OC[C@@H]3CCN(C(=O)c4ccc(Nc5cc(-n6nc(C(F)(F)F)c7c6CC(C)(C)CC7=O)ccc5C(N)=O)cc4)C3)nc3c2CCN(c2cccc4cccc(Cl)c24)C3)C[C@@H]1CC#N [Compound 181, 2-((4-((R)-3-(((4-((S)-4-acryloyl-3-(cyanomethyl)piperazin-1-yl)-7-(8-chloronaphthalen-1-yl)-5,6,7,8-tetrahydropyrido[3,4-d]pyrimidin-2-yl)oxy)methyl)pyrrolidine-1-carbonyl)phenyl)amino)-4-(6,6-dimethyl-4-oxo-3-(trifluoromethyl)-4,5,6,7-tetrahydro-1H-indazol-1-yl)benzamide] | > 1000 | > 1000
4 | C=CC(=O)N1CCN(c2nc(OC[C@@H]3CCN(C(=O)COc4ccc(Nc5cc(-n6nc(C(F)(F)F)c7c6CC(C)(C)CC7=O)ccc5C(N)=O)cc4)C3)nc3c2CCN(c2cccc4cccc(Cl)c24)C3)C[C@@H]1CC#N [Compound 178, 2-((4-(2-((R)-3-(((4-((S)-4-acryloyl-3-(cyanomethyl)piperazin-1-yl)-7-(8-chloronaphthalen-1-yl)-5,6,7,8-tetrahydropyrido[3,4-d]pyrimidin-2-yl)oxy)methyl)pyrrolidin-1-yl)-2-oxoethoxy)phenyl)amino)-4-(6,6-dimethyl-4-oxo-3-(trifluoromethyl)-4,5,6,7-tetrahydro-1H-indazol-1-yl)benzamide] | > 1000 | > 1000
5 | C=CC(=O)N1CCN(c2nc(OC[C@@H]3CCN(C(=O)c4ccc5c(c4)CN(C(=O)c4cc(CC)c(O)cc4O)C5)C3)nc3c2CCN(c2cccc4cccc(Cl)c24)C3)C[C@@H]1CC#N [Compound 176, 2-((S)-1-acryloyl-4-(7-(8-chloronaphthalen-1-yl)-2-(((R)-1-(2-(5-ethyl-2,4-dihydroxybenzoyl)isoindoline-5-carbonyl)pyrrolidin-3-yl)methoxy)-5,6,7,8-tetrahydropyrido[3,4-d]pyrimidin-4-yl)piperazin-2-yl)acetonitrile] |  | > 1000
6 | C=CC(=O)N1CCN(c2nc(OCC3(CN4CCN(Cc5ccc(-n6c(C(=O)NCC)nnc6-c6cc(C(C)C)c(O)cc6O)cc5)CC4)CC3)nc3c2CCN(c2cccc(C)c2C)C3)C[C@@H]1CC#N [Compound 291, 4-(4-{[4-({1-[({4-[(3S)-3-(cyanomethyl)-4-(prop-2-enoyl)piperazin-1-yl]-7-(2,3-dimethylphenyl)-5H,6H,8H-pyrido[3,4-d]pyrimidin-2-yl}oxy)methyl]cyclopropyl}-methyl)piperazin-1-yl]methyl}phenyl)-5-(2,4-dihydroxy-5-isopropylphenyl)-N-et-hyl-1,2,4-triazole-3-carboxamide] | < 100 | 

The next lines start with the values.

Row | EC50 [1] [nM] | IC50 (HSP90a protein) [nM] | Compound
7 | > 1000 | 100 to 1000 | C=CC(=O)N1CCN(c2nc(OC[C@@H]3CCN(C(=O)C4CCN(Cc5ccc(-n6c(O)nnc6-c6cc(C)c(O)cc6O)cc5)CC4)C3)nc3c2CCN(c2cccc4cccc(Cl)c24)C3)C[C@@H]1CC#N [Compound 180, 2-((S)-1-acryloyl-4-(7-(8-chloronaphthalen-1-yl)-2-(((R)-1-(1-(4-(3-(2,4-dihydroxy-5-methylphenyl)-5-hydroxy-4H-1,2,4-triazol-4-yl)benzyl)piperidine-4-carbonyl)pyrrolidin-3-yl)methoxy)-5,6,7,8-tetrahydropyrido[3,4-d]pyrimidin-4-yl)piperazin-2-yl)acetonitrile]
8 | > 1000 | < 100 | C=C(F)C(=O)N1CCN(c2nc(OCCN3CCN(C(=O)c4ccc(-n5c(O)nnc5-c5cc(C(C)C)c(O)cc5O)cc4)CC3)nc3c2CCN(c2cccc4cccc(Cl)c24)C3)C[C@@H]1CC#N [Compound 226]
9 | 100 to 1000 | 100 to 1000 | C=CC(=O)N1CCN(c2nc(OC[C@H]3CCN(C(=O)C4CCN(Cc5ccc(-n6c(O)nnc6-c6cc(C(C)C)c(O)cc6O)cc5)CC4)C3)nc3c2CCN(c2cccc4cccc(Cl)c24)C3)C[C@@H]1CC#N [Compound 184, 2-((S)-1-acryloyl-4-(7-(8-chloronaphthalen-1-yl)-2-(((S)-1-(1-(4-(3-(2,4-dihydroxy-5-isopropylphenyl)-5-hydroxy-4H-1,2,4-triazol-4-yl)benzyl)piperidine-4-carbonyl)pyrrolidin-3-yl)methoxy)-5,6,7,8-tetrahydropyrido[3,4-d]pyrimidin-4-yl)piperazin-2-yl)acetonitrile]
10 | 100 to 1000 | < 100 | C=CC(=O)N1CCN(c2nc(OC[C@@H]3CN(C(=O)C4CCN(Cc5ccc(-n6c(C(=O)NCC(F)(F)F)nnc6-c6cc(C(C)C)c(O)cc6O)cc5)CC4)CCN3C)nc3c2CCN(c2cccc4cccc(Cl)c24)C3)C[C@@H]1CC#N [Compound 199, 4-(4-((4-((S)-3-(((4-((S)-4-acryloyl-3-(cyanomethyl)piperazin-1-yl)-7-(8-chloronaphthalen-1-yl)-5,6,7,8-tetrahydropyrido[3,4-d]pyrimidin-2-yl)oxy)methyl)-4-methylpiperazine-1-carbonyl)piperidin-1-yl)methyl)phenyl)-5-(2,4-dihydroxy-5-isopropylphenyl)-N-(2,2,2-trifluoroethyl)-4H-1,2,4-triazole-3-carboxamide]
11 |  | 100 to 1000 | CC(C)c1cc(-c2nnc(O)n2-c2ccc(CN3CCC(C(=O)N4CC[C@@H](COc5nc6c(c(N7CCN(C(=O)C(F)(F)F)[C@@H](CC#N)C7)n5)CCN(c5cccc7cccc(Cl)c57)C6)C4)CC3)cc2)c(O)cc1O [Compound 177, 2-((S)-4-(7-(8-chloronaphthalen-1-yl)-2-(((R)-1-(1-(4-(3-(2,4-dihydroxy-5-isopropylphenyl)-5-hydroxy-4H-1,2,4-triazol-4-yl)benzyl)piperidine-4-carbonyl)pyrrolidin-3-yl)methoxy)-5,6,7,8-tetrahydropyrido[3,4-d]pyrimidin-4-yl)-1-(2,2,2-trifluoroacetyl)piperazin-2-yl)acetonitrile]
12 | 100 to 1000 | < 100 | C=CC(=O)N1CCN(c2nc(OCC3CCN(C(=O)C4CCN(Cc5ccc(-n6c(O)nnc6-c6cc(C(C)C)c(O)cc6O)cc5)CC4)CC3)nc3c2CCN(c2cccc4cccc(Cl)c24)C3)C[C@@H]1CC#N [Compound 179, (S)-2-(1-acryloyl-4-(7-(8-chloronaphthalen-1-yl)-2-((1-(1-(4-(3-(2,4-dihydroxy-5-isopropylphenyl)-5-hydroxy-4H-1,2,4-triazol-4-yl)benzyl)piperidine-4-carbonyl)piperidin-4-yl)methoxy)-5,6,7,8-tetrahydropyrido[3,4-d]pyrimidin-4-yl)piperazin-2-yl)acetonitrile]
13 |  | 100 to 1000 | C=CC(=O)N1CCN(c2nc(NCCC(=O)NCc3ccc(CN4CCC(Cc5ccc(-n6c(C(=O)NC(C)C)nnc6-c6cc(C(C)C)c(O)cc6O)cc5)CC4)cc3)nc3c2CCN(c2cc(O)cc4ccccc24)C3)CC1 [Compound 126, 4-(4-((1-(4-((3-((4-(4-acryloylpiperazin-1-yl)-7-(3-hydroxynaphthalen-1-yl)-5,6,7,8-tetrahydropyrido[3,4-d]pyrimidin-2-yl)amino)propanamido)methyl)benzyl)piperidin-4-yl)methyl)phenyl)-5-(2,4-dihydroxy-5-isopropylphenyl)-N-isopropyl-4H-1,2,4-triazole-3-carboxamide, trifluoroacetic acid]
